Experimental findings from ChEMBL document CHEMBL1151496, “Nonpeptide GPIIB/IIIA inhibitors. 16. Thieno[2,3-b]thiophene -sulfonamides are potent inhibitors of platelet aggregation” (Bioorg Med Chem Lett, 1997) are described below.

Some results are limits rather than exact numbers.

The species entered for assay [1] is Homo sapiens. The assay can be described thus: The compound was tested for the inhibition of platelet aggregation. It counts as functional.
Assay [2] is filed under the species Homo sapiens. The assay is described as follows: Measured by competition with fluorescent ligand L-762,745 for binding to resting human gel filtered platelets using flow cytometry. It counts as functional. (In general: Flow cytometry measures light scatter and fluorescence of single cells or particles in a stream.)
Assay [3] is filed under the species Homo sapiens. The assay is described as follows: Tested for the inhibition of [125 I] -L 692,884 binding to purified GPIIb/IIIa coated onto yttrium silicate Scintillation proximity assay fluomicrospheres. In general terms: In a scintillation proximity assay essentially only radioactivity close to the scintillant gives light.
In assay [4] the test system is Canis familiaris. The assay can be described thus: Tested ex vivo inhibition of platelet aggregation after oral dose of 200 ug/kg through out 24 hr in dog. It counts as functional. The settings on record: Canis lupus familiaris.
Assay [5] concerns Canis familiaris. The assay is described as follows: Tested ex vivo inhibition of platelet aggregation after oral dose of 200 ug/kg through out 8 hr in dog. It counts as functional. To be noted: Canis lupus familiaris.

As usually defined, the IC50 is the concentration at which inhibition is half-maximal. Lower therefore signals greater potency. Broadly, the Kd is the concentration at which binding is half-saturated. A low value points to a tighter complex. `CCCCS(=O)(=O)N[C@@H](CNC(=O)c1cc2cc(CCC3CCNCC3)sc2s1)C(=O)O` yielded an IC50 in the assay filed under Homo sapiens [1] of 32 nM. The compound further had a Kd in the assay listed under Homo sapiens [2] of 5.6 nM. The compound also had an ED50 in the assay listed under Homo sapiens [3] of 0.12 nM.
`O=C(O)CCNC(=O)c1cc2sc(CCC3CCNCC3)cc2s1` had an IC50 in the assay listed under Homo sapiens [1] of 500 nM. The same compound gave a Kd in the assay listed under Homo sapiens [2] of roughly 600 nM.
`O=C(NCc1ccccc1)N[C@@H](CNC(=O)c1cc2cc(CCC3CCNCC3)sc2s1)C(=O)O` returned an IC50 in the assay filed under Homo sapiens [1] of 76 nM. For the same compound, the Kd in the assay listed under Homo sapiens [2] was found to be 94 nM. Also, in the assay filed under Homo sapiens [3], the ED50 came to 1.9 nM.
For `O=C(NC[C@H](NS(=O)(=O)c1cccnc1)C(=O)O)c1cc2cc(CCC3CCNCC3)sc2s1`, in the assay listed under Homo sapiens [1], the 50% inhibitory concentration (IC50) turned out to be 8 nM.
In the assay listed under Homo sapiens [1], `O=C(NC[C@H](NS(=O)(=O)c1cccs1)C(=O)O)c1cc2cc(CCC3CCNCC3)sc2s1` yielded an IC50 of 9 nM. The compound also showed a dissociation constant Kd in the assay filed under Homo sapiens [2] of 0.15 nM. Also, in the assay listed under Homo sapiens [3], the ED50 stood at 0.04 nM.
`O=C(O)CCNC(=O)c1cc2cc(CCC3CCNCC3)sc2s1` gave an IC50 in the assay listed under Homo sapiens [1] of 410 nM. In the assay listed under Homo sapiens [3], this compound came in with an ED50 of 48 nM.
Compound `O=C(NC[C@H](NS(=O)(=O)c1cccnc1)C(=O)O)c1cc2cc(CCCC3CCNCC3)sc2s1` had an IC50 in the assay listed under Homo sapiens [1] of 21 nM.
`O=C(NC[C@H](NS(=O)(=O)c1cccs1)C(=O)O)c1cc2sc(CCC3CCNCC3)cc2s1` came in with an IC50 in the assay filed under Homo sapiens [1] of 13 nM. For the same compound, in the assay listed under Homo sapiens [2], binding was put at a Kd of 0.092 nM. For the same compound, the ED50 in the assay listed under Homo sapiens [3] was 0.04 nM.
Usually inhibition in vivo stands for the percentage by which the read-out fell short of the control. As for `O=C(NC[C@H](NS(=O)(=O)c1ccccc1)C(=O)O)c1cc2cc(CCC3CCNCC3)sc2s1`, it took 8 nM to reach half-maximal inhibition in the assay filed under Homo sapiens [1] (IC50). The same compound came in with a Kd in the assay listed under Homo sapiens [2] of 0.023 nM. In the assay filed under Homo sapiens [3], this compound returned an ED50 of 0.03 nM. Moreover, the inhibition in vivo at 0.2 mg/kg with Canis familiaris [4] was 50%; in the assay with Canis familiaris [5], greater than 80%.
Regarding `O=C(NCc1ccccc1)N[C@@H](CNC(=O)c1cc2sc(CCC3CCNCC3)cc2s1)C(=O)O`, in the assay listed under Homo sapiens [1], the IC50 turned out to be 36 nM. Further, the equilibrium dissociation constant (Kd) in the assay filed under Homo sapiens [2] came to 33 nM. Besides, the ED50 in the assay listed under Homo sapiens [3] is 2.6 nM.
Taken in the same sequence, the figures for `CCCCS(=O)(=O)N[C@@H](CNC(=O)c1cc2sc(CCC3CCNCC3)cc2s1)C(=O)O` were 10 nM, 3 nM and 0.21 nM.
The like results for `O=C(NC[C@H](NS(=O)(=O)c1ccc(Cl)cc1)C(=O)O)c1cc2cc(CCC3CCNCC3)sc2s1` were, in that order, 11 nM, 0.026 nM and 0.09 nM.
Consider `O=C(NC[C@H](NS(=O)(=O)c1cccnc1)C(=O)O)c1cc2cc(CC3CCNCC3)sc2s1`, for which, in the assay listed under Homo sapiens [1], it took 23 nM to reach half-maximal inhibition (IC50).
The compound `O=C(NC[C@H](NS(=O)(=O)c1ccccc1)C(=O)O)c1cc2sc(CCC3CCNCC3)cc2s1` displayed an IC50 in the assay filed under Homo sapiens [1] of 8 nM. Also, the Kd in the assay listed under Homo sapiens [2] was 0.15 nM. The ED50 in the assay filed under Homo sapiens [3] came to 0.08 nM.
